Test results taken from patent publication US8940742B2, “Heterocyclic compounds and uses thereof” (Infinity Pharmaceuticals, Inc., priority 2012, dated 2015).

Experiments:
PI3K α = molecular target: T1, PI3K α (Homo sapiens, UniProt P42336); test: PI3-Kinase Promega ADP-Glo Max assay; assay type: biochemical; settings: 20 nM kinase, 3 mM ATP, 500 uM diC8-PtdInsP
T1 construct: purchased Millipore
Procedure: (§1) Promega ADP-Glo Max assay kit (Cat. No. V7002) was utilized to determine IC50 values for α, β, δ and γ isoforms of human Class I PI3 kinases (Millipore). Samples of kinase (20 nM α or δ, 40 nM β or γ isoform) were incubated with compound for 15 minutes at room temperature in reaction buffer (15 mM HEPES pH 7.4, 20 mM NaCl, 1 mM EGTA, 0.02% Tween 20, 10 mM MgCl2, 0.2 mg/mL bovine-γ-globulins) followed by addition of ATP/diC8-PtdInsP mixture to give final concentrations of 3 mM ATP and 500 uM diC8-PtdInsP. Reactions were incubated at room temperature for 2 hours followed by addition of 25 uL of stop solution. After a 40-minute incubation at room temperature, 50 uL of Promega detection mix was added followed by incubation for 1 hour at room temperature. Plates were then read on Envision plate reader in luminescence mode. Data was converted to % inhibition using the following equation below:
(§2) [formula] where S is the sample luminescence, Pos is a positive control without added PI3K, Neg is the negative control without added compound. Data was then plotted as % inhibition vs compound concentration. Data fit to 4 parameter logistic equation to determine IC50 values: […]
(§3) Certain compounds provided herein were tested in PI3-Kinase Promega Assay using procedures as described above to determine IC50 values for α, β, δ and/or γ isoforms.

PI3K δ = molecular target: T2, PI3K δ (Homo sapiens, UniProt O00329); test: PI3-Kinase Promega ADP-Glo Max assay; assay type: biochemical; settings: 20 nM kinase, 3 mM ATP, 500 uM diC8-PtdInsP
T2 construct: purchased Millipore
T2 sequence (O00329 whole entry): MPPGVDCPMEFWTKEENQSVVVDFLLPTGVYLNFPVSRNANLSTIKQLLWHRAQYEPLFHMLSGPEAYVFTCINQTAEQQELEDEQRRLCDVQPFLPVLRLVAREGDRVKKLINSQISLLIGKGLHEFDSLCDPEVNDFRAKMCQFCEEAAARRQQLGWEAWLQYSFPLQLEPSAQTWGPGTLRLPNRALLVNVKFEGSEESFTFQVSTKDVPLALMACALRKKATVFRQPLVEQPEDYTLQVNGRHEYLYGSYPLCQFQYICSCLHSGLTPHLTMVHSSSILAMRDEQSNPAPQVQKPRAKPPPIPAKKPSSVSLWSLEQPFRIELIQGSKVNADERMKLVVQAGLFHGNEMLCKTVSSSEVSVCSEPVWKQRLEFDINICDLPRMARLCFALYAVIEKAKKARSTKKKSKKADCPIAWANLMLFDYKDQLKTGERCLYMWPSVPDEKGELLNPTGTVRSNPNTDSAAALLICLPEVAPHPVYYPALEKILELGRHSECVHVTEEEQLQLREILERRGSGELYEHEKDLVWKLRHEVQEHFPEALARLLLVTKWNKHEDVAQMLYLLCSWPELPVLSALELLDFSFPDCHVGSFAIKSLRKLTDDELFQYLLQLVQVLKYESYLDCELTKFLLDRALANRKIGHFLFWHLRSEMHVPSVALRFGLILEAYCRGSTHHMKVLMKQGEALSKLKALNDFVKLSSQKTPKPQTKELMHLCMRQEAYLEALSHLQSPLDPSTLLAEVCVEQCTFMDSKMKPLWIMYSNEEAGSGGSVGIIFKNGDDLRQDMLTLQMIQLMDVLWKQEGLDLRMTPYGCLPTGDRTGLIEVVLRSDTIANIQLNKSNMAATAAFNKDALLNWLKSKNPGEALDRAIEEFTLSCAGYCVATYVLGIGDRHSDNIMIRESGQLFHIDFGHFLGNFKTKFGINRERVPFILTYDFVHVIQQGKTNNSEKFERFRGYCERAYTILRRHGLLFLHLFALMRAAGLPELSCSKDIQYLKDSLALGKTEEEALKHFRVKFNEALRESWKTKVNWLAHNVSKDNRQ
T2 sequence (P27986 whole entry partner): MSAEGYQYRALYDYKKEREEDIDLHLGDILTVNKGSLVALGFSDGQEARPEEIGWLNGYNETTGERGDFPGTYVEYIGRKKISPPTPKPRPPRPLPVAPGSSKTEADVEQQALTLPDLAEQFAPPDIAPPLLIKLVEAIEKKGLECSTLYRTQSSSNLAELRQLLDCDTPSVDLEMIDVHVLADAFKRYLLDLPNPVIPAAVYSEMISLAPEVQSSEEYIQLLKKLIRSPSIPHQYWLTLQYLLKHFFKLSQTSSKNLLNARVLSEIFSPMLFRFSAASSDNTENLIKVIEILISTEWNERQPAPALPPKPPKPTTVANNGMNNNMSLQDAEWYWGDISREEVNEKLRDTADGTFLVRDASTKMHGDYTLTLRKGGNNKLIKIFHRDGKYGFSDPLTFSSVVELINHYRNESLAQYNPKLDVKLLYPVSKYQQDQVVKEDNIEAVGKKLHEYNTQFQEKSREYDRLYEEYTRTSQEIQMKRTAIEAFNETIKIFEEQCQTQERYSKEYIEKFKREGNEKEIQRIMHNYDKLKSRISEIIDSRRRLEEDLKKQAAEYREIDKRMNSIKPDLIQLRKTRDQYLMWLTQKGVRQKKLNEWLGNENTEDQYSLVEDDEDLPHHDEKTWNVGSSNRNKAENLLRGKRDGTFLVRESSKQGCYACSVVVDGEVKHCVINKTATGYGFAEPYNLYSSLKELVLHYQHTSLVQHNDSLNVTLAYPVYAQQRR
Procedure: as §1, §2, §3

PI3K β = molecular target: T3, PI3K β (Homo sapiens, UniProt P42338); test: PI3-Kinase Promega ADP-Glo Max assay; assay type: biochemical; settings: 40 nM kinase, 3 mM ATP, 500 uM diC8-PtdInsP
T3 construct: purchased Millipore
Procedure: as §1, §2, §3

Raw264.7 p110 γ = molecular target: T4, Raw264.7 p110 γ (Mus musculus, UniProt Q9JHG7); test: Raw264.7 p110 γ cellular assay (phospho-AKT); assay type: cell-based; settings: serum-starved RAW264.7 cells stimulated with C5a
T4 construct: reduction of phospho-AKT in stimulated RAW 264.7 cells; endogenous in cells; host or cells: RAW264.7 macrophages
T4 sequence (Q9JHG7 whole entry): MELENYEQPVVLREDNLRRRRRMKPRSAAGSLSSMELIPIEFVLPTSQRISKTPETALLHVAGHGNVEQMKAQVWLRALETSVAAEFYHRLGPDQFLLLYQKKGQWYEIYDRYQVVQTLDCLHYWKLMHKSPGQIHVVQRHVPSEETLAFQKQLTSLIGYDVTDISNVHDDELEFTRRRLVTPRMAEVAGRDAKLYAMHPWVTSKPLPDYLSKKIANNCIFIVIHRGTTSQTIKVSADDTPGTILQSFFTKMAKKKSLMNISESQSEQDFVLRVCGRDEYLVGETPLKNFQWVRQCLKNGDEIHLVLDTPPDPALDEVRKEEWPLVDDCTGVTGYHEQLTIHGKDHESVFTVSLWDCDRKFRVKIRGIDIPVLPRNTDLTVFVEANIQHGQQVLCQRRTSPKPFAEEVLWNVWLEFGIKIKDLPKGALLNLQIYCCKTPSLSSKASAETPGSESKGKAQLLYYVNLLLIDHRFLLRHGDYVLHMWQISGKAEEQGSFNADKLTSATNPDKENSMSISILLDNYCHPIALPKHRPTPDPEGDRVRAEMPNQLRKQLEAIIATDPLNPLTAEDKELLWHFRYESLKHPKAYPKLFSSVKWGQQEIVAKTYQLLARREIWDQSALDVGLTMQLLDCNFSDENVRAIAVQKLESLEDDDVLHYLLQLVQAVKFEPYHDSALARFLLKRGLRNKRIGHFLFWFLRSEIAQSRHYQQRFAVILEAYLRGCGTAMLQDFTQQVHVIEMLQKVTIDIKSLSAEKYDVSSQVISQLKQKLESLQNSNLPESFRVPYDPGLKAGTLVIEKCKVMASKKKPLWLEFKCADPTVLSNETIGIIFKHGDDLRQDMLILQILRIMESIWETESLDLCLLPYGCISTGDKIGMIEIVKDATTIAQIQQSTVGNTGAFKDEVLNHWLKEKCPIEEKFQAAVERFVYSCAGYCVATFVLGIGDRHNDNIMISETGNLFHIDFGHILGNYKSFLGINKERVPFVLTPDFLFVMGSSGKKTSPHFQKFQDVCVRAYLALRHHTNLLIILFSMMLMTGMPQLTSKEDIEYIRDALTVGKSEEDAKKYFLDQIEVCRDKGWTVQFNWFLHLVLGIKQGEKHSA
Source text: (b) PI3K-γ Selective Assay
Briefly, serum-starved PAW264.7 cells are stimulated with a known GPCR agonist C5a. […] Cells can be treated with test compounds prior to, simultaneously with, or subsequent to the stimulation by C5a. RAW 264.7 cells respond to the complement component fragment C5a through activation of the C5a receptor, and the C5a receptor activates macrophages and induces cell migration.

PI3K γ = molecular target: T5, PI3K γ (Homo sapiens, UniProt P48736); test: PI3-Kinase Promega ADP-Glo Max assay; assay type: biochemical; settings: 40 nM kinase, 3 mM ATP, 500 uM diC8-PtdInsP
T5 construct: purchased Millipore
T5 sequence (P48736 whole entry): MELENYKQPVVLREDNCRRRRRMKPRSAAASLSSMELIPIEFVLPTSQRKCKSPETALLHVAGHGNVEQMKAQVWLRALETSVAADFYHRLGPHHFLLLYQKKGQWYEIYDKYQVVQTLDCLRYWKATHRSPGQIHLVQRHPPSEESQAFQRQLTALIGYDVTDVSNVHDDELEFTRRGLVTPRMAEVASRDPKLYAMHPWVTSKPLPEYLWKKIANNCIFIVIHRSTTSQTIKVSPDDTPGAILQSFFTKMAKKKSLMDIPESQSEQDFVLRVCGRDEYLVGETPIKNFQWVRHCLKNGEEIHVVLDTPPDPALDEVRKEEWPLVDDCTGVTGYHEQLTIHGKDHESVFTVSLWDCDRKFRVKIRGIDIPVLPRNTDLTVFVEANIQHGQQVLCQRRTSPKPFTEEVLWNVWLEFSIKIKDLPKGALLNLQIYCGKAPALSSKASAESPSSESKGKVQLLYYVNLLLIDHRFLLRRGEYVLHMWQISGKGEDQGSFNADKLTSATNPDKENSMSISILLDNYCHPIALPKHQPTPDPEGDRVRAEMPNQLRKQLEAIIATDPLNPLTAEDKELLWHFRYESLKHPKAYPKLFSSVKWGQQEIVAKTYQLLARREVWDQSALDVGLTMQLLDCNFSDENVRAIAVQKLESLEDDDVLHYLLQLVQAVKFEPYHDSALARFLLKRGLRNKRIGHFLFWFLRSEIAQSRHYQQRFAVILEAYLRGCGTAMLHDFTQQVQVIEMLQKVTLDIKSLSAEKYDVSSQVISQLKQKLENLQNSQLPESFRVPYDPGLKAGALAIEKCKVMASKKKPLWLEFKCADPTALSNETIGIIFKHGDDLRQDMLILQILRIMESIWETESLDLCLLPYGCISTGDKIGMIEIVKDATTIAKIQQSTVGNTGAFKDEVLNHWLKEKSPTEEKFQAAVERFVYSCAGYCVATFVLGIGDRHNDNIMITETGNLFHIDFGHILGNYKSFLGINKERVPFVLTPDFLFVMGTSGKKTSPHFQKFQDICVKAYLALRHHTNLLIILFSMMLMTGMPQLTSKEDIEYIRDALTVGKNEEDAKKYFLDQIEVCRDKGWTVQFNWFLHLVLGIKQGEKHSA
Procedure: Promega ADP-Glo Max assay kit (Cat. No. V7002) was utilized to determine IC50 values for α, β, δ and γ isoforms of human Class I PI3 kinases (Millipore). […] Reactions were incubated at room temperature for 2 hours followed by addition of 25 uL of stop solution. After a 40-minute incubation at room temperature, 50 uL of Promega detection mix was added followed by incubation for 1 hour at room temperature. Plates were then read on Envision plate reader in luminescence mode. Data was converted to % inhibition using the following equation below:
[formula] where S is the sample luminescence, Pos is a positive control without added PI3K, Neg is the negative control without added compound. Data was then plotted as % inhibition vs compound concentration.
as §3

RAJI p110 δ = RAJI p110 δ (Homo sapiens, UniProt O00329); test: RAJI p110 δ cellular assay (phospho-AKT);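 further: potency based on lowered phosphorylated AKT in RAJI cells, as a readout of PI3K-δ dependent B-cell receptor signaling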
Sequence of RAJI p110 δ (O00329 whole entry): as the sequence (O00329 whole entry) above
Sequence of RAJI p110 δ (P27986 whole entry partner): as the sequence (P27986 whole entry partner) above
Source text: (a) PI3K-δ Selective Assay
Reduction of phospho-AKT is indicative of compounds that may inhibit B-cell proliferation and function in certain diseases.

IC50 (PI3K α) | IC50 (PI3K δ) | IC50 (PI3K β) | IC50 (Raw264.7 p110 γ) | IC50 (PI3K γ) | IC50 (RAJI p110 δ) | Compound
1000 to 10000 nM | 1000 to 10000 nM | 100 to 1000 nM | < 100 nM | < 100 nM | < 100 nM | C[C@H](NC(=O)c1nc(-c2cccc(NS(C)(=O)=O)c2)cnc1N)c1cc2cccc(Cl)c2c(=O)n1C1CC1 [Compound 171]
> 10000 nM | 1000 to 10000 nM | 1000 to 10000 nM | < 100 nM | 1000 to 10000 nM | < 100 nM | CC(NC(=O)c1c(N)nn2cccnc12)c1cc2cccc(Cl)c2nc1-c1ccccc1 (stereo not drawn) [Compound 218]
1000 to 10000 nM | 1000 to 10000 nM | 1000 to 10000 nM | 100 to 1000 nM | 100 to 1000 nM | 100 to 1000 nM | C[C@H](NC(=O)c1c(N)nn2cccnc12)c1cc2cccc(C#CCN)c2c(=O)n1-c1ccccc1 [Compound 153]
1000 to 10000 nM | 1000 to 10000 nM | 1000 to 10000 nM | < 100 nM | 100 to 1000 nM | < 100 nM | C[C@H](NC(=O)c1nc(-c2cn[nH]c2)cnc1N)c1cc2cccc(Cl)c2c(=O)n1-c1ccccc1 [Compound 110]
> 10000 nM | 1000 to 10000 nM | > 10000 nM | < 100 nM | 100 to 1000 nM | < 100 nM | COc1ccc(-c2cccc3cc([C@H](C)NC(=O)c4c(N)nn5cccnc45)n(-c4ccccc4)c(=O)c23)cn1 [Compound 223]
> 10000 nM | > 10000 nM | > 10000 nM | 100 to 1000 nM | 1000 to 10000 nM | 1000 to 10000 nM | C[C@H](NC(=O)c1nc(-c2ccc(S(C)(=O)=O)cc2)cnc1N)c1cc2cccc(Cl)c2c(=O)n1-c1ccccc1 [Compound 90]
1000 to 10000 nM | < 100 nM | < 100 nM | < 100 nM | 100 to 1000 nM | < 100 nM | CC[C@H](NC(=O)c1c(N)nn2cccnc12)c1cc2cccc(Cl)c2c(=O)n1-c1ccccc1 [Compound 250]
1000 to 10000 nM | > 10000 nM | 1000 to 10000 nM | < 100 nM | 1000 to 10000 nM | 100 to 1000 nM | C[C@H](NC(=O)c1nc(-c2cnn(C)c2)cnc1N)c1cc2cccc(Cl)c2c(=O)n1-c1ccccc1 [Compound 109]
> 10000 nM | 1000 to 10000 nM | 1000 to 10000 nM | 100 to 1000 nM | 1000 to 10000 nM | 100 to 1000 nM | C[C@H](NC(=O)c1cnn2cccnc12)c1cc2cccc(Cl)c2c(=O)n1-c1ccccc1 [Compound 22]
> 10000 nM | < 100 nM | < 100 nM | 100 to 1000 nM | 1000 to 10000 nM | < 100 nM | C[C@H](NC(=O)c1c(N)nn2cccnc12)c1cc2cccc(Cl)c2c(=O)n1CCN(C)C [Compound 242]
1000 to 10000 nM | 100 to 1000 nM | 1000 to 10000 nM | < 100 nM | < 100 nM | < 100 nM | C[C@H](NC(=O)c1c(N)nn2cccnc12)c1c(Br)c2cccc(Cl)c2c(=O)n1-c1ccccc1 [Compound 254]
100 to 1000 nM | 1000 to 10000 nM | 1000 to 10000 nM | < 100 nM | 100 to 1000 nM | < 100 nM | C[C@H](NC(=O)c1c(N)nn2cccnc12)c1cc2cccc(C#CCNC(=O)c3ccc(C#N)o3)c2c(=O)n1-c1ccccc1 [Compound 164]
1000 to 10000 nM | 1000 to 10000 nM | > 10000 nM | < 100 nM | 100 to 1000 nM | < 100 nM | C[C@H](NC(=O)c1c(N)nn2cccnc12)c1cc2cccc(C#CCCNC(=O)[C@H]3CCC(=O)O3)c2c(=O)n1-c1ccccc1 [Compound 161]
1000 to 10000 nM | 1000 to 10000 nM | > 10000 nM | < 100 nM | 100 to 1000 nM | < 100 nM | COc1cc(-c2cccc3cc([C@H](C)NC(=O)c4c(N)nn5ccc(C)nc45)n(-c4ccccc4)c(=O)c23)ccn1 [Compound 186]
> 10000 nM | 100 to 1000 nM | 100 to 1000 nM | 100 to 1000 nM | 100 to 1000 nM | < 100 nM | C[C@H](NC(=O)c1nc(C#N)cnc1N)c1cc2cccc(Cl)c2c(=O)n1-c1ccccc1 [Compound 111]
1000 to 10000 nM | 1000 to 10000 nM | 100 to 1000 nM | < 100 nM | < 100 nM | < 100 nM | C[C@H](NC(=O)c1c(N)nn2cccnc12)c1cc2cccc(Cl)c2c(=O)n1-c1ccc(F)cc1 [Compound 72]
1000 to 10000 nM | 1000 to 10000 nM | 100 to 1000 nM | < 100 nM | < 100 nM | < 100 nM | C[C@H](NC(=O)c1nc(-c2cccc(NS(C)(=O)=O)c2)cnc1N)c1cc2cccc(Cl)c2c(=O)n1-c1ccccc1 [Compound 85]
> 10000 nM | > 10000 nM | 1000 to 10000 nM | 100 to 1000 nM | 1000 to 10000 nM | 100 to 1000 nM | C[C@H](NC(=O)c1nc(-c2cccc(O)c2)cnc1N)c1cc2cccc(Cl)c2c(=O)n1-c1ccccc1 [Compound 104]
100 to 1000 nM | 100 to 1000 nM | 100 to 1000 nM | < 100 nM | < 100 nM | < 100 nM | C[C@H](NC(=O)c1c(N)nn2cccnc12)c1cc2cccc(C#CCNC(=O)[C@@H]3CCC(=O)O3)c2c(=O)n1-c1ccccc1 [Compound 157]
< 100 nM | < 100 nM | < 100 nM | < 100 nM | < 100 nM | < 100 nM | C[C@H](NC(=O)c1c(N)nn2ccc(-c3cccc(S(C)(=O)=O)c3)nc12)c1cc2cccc(Cl)c2c(=O)n1-c1ccccc1 [Compound 127]
> 10000 nM | 1000 to 10000 nM | 1000 to 10000 nM | 100 to 1000 nM | 1000 to 10000 nM | 100 to 1000 nM | C[C@H](NC(=O)c1c(N)nn2cccnc12)c1cc2sccc2c(=O)n1-c1ccccc1 [Compound 225]
1000 to 10000 nM | 100 to 1000 nM | 100 to 1000 nM | < 100 nM | < 100 nM | < 100 nM | Cc1c([C@H](C)NC(=O)c2c(N)nn3cccnc23)n(-c2ccccc2)c(=O)c2c(F)cccc12 [Compound 260]
> 10000 nM | 1000 to 10000 nM | 1000 to 10000 nM | < 100 nM | 100 to 1000 nM | < 100 nM | C[C@H](NC(=O)c1c(N)nn2cccnc12)c1cc2cccc(C#N)c2c(=O)n1-c1ccccc1 [Compound 227]
> 10000 nM | 1000 to 10000 nM | 1000 to 10000 nM | < 100 nM | 1000 to 10000 nM | < 100 nM | CC(C)Oc1cc(-c2cccc3nc([C@H](C)NC(=O)c4c(N)nn5cccnc45)n(-c4ccccc4)c(=O)c23)ccn1 [Compound 145]
> 10000 nM | 1000 to 10000 nM | > 10000 nM | 100 to 1000 nM | 100 to 1000 nM | < 100 nM | C[C@H](NC(=O)c1nccnc1N)c1cc2cccc(-c3cnn(C)c3)c2c(=O)n1-c1ccccc1 [Compound 54, (S)-3-amino-N-(1-(8-(1-methyl-1H-pyrazol-4-yl)-1-oxo-2-phenyl-1,2-dihydroisoquinolin-3-yl)ethyl)pyrazine-2-carboxamide]
> 10000 nM | 1000 to 10000 nM | 1000 to 10000 nM | < 100 nM | 1000 to 10000 nM | 100 to 1000 nM | CC(C)c1ccn2nc(N)c(C(=O)N[C@@H](C)c3cc4cccc(Cl)c4c(=O)n3-c3ccccc3)c2n1 [Compound 178]
> 10000 nM | 1000 to 10000 nM | 1000 to 10000 nM | < 100 nM | 100 to 1000 nM | 100 to 1000 nM | C[C@H](NC(=O)c1c(N)nn2cccnc12)c1cc2cccc(CO)c2c(=O)n1-c1ccccc1 [Compound 228]
1000 to 10000 nM | 1000 to 10000 nM | 1000 to 10000 nM | < 100 nM | 100 to 1000 nM | 100 to 1000 nM | COc1ccc(-c2cnc(N)c(C(=O)N[C@@H](C)c3cc4cccc(Cl)c4c(=O)n3-c3ccccc3)n2)cc1OC [Compound 93]
